Data reported in the NIST ThermoML archive (doi:10.1021/je100231g).
Where “and” joins values, the source holds several entries; their conditions need not be identical. Equal entries are not always repeated. Structures can show the parent of a compound that is named as a salt. Numbers after ± are expanded uncertainties.

Conditions: Liquid, Gas Saturation Method

## CCCCOC(=O)CCC(=O)OCCCC [butanedioic acid, dibutyl ester]
313.3 K
  vapor or sublimation pressure: 0.00132 ± 8e-05 kPa
316.2 K
  vapor or sublimation pressure: 0.0017 ± 0.00011 kPa
318.3 K
  vapor or sublimation pressure: 0.00205 ± 0.00013 kPa
320.2 K
  vapor or sublimation pressure: 0.00248 ± 0.00016 kPa
323.2 K
  vapor or sublimation pressure: 0.00325 ± 0.0002 kPa
325.2 K
  vapor or sublimation pressure: 0.00383 ± 0.00024 kPa
328.2 K
  vapor or sublimation pressure: 0.00489 ± 0.0003 kPa
330.2 K
  vapor or sublimation pressure: 0.00577 ± 0.00036 kPa
333.2 K
  vapor or sublimation pressure: 0.00743 ± 0.00046 kPa
335.4 K
  vapor or sublimation pressure: 0.00877 ± 0.00055 kPa
338.2 K
  vapor or sublimation pressure: 0.011 ± 0.0007 kPa
340.1 K
  vapor or sublimation pressure: 0.0121 ± 0.0008 kPa
343.2 K
  vapor or sublimation pressure: 0.0164 ± 0.001 kPa
346.2 K
  vapor or sublimation pressure: 0.0197 ± 0.0012 kPa
349.2 K
  vapor or sublimation pressure: 0.0247 ± 0.0015 kPa
352.1 K
  vapor or sublimation pressure: 0.0319 ± 0.002 kPa
355.1 K
  vapor or sublimation pressure: 0.0387 ± 0.0024 kPa
358.2 K
  vapor or sublimation pressure: 0.0473 ± 0.0029 kPa

## CCCOC(=O)CCC(=O)OCCC [butanedioic acid, dipropyl ester]
308.3 K
  vapor or sublimation pressure: 0.00487 ± 0.00031 kPa
312.4 K
  vapor or sublimation pressure: 0.00685 ± 0.00043 kPa
316.4 K
  vapor or sublimation pressure: 0.00936 ± 0.00058 kPa
318.5 K
  vapor or sublimation pressure: 0.0111 ± 0.0007 kPa
321.5 K
  vapor or sublimation pressure: 0.0139 ± 0.0009 kPa
323.5 K
  vapor or sublimation pressure: 0.0163 ± 0.001 kPa
326.4 K
  vapor or sublimation pressure: 0.0209 ± 0.0013 kPa
328.6 K
  vapor or sublimation pressure: 0.0252 ± 0.0016 kPa
331.3 K
  vapor or sublimation pressure: 0.0303 ± 0.0019 kPa
333.4 K
  vapor or sublimation pressure: 0.0362 ± 0.0022 kPa
336.5 K
  vapor or sublimation pressure: 0.0443 ± 0.0027 kPa
338.5 K
  vapor or sublimation pressure: 0.0509 ± 0.0031 kPa
341.5 K
  vapor or sublimation pressure: 0.0625 ± 0.0038 kPa
343.5 K
  vapor or sublimation pressure: 0.0723 ± 0.0044 kPa

## CCCCOC(=O)C(=O)OCCCC [di-n-butyl oxalate]
291.4 K
  vapor or sublimation pressure: 0.00087 ± 6e-05 kPa
293.4 K
  vapor or sublimation pressure: 0.0011 ± 7e-05 kPa
295.7 K
  vapor or sublimation pressure: 0.00143 ± 9e-05 kPa
298.8 K
  vapor or sublimation pressure: 0.00182 ± 0.00011 kPa
300.4 K
  vapor or sublimation pressure: 0.00209 ± 0.00013 kPa
302.3 K
  vapor or sublimation pressure: 0.00249 ± 0.00016 kPa
302.8 K
  vapor or sublimation pressure: 0.00276 ± 0.00018 kPa
303.3 K
  vapor or sublimation pressure: 0.00283 ± 0.00018 kPa
305.2 K
  vapor or sublimation pressure: 0.0034 ± 0.00021 kPa
305.3 K
  vapor or sublimation pressure: 0.00334 ± 0.00021 kPa
308.2 K
  vapor or sublimation pressure: 0.00446 ± 0.00028 kPa
308.3 K
  vapor or sublimation pressure: 0.00433 ± 0.00027 kPa
308.4 K
  vapor or sublimation pressure: 0.00448 ± 0.00028 kPa
311.3 K
  vapor or sublimation pressure: 0.00565 ± 0.00035 kPa
312.3 K
  vapor or sublimation pressure: 0.00624 ± 0.00039 kPa
313.2 K
  vapor or sublimation pressure: 0.0066 ± 0.00041 kPa
314.3 K
  vapor or sublimation pressure: 0.00737 ± 0.00047 kPa
315.5 K
  vapor or sublimation pressure: 0.00855 ± 0.00053 kPa
317.4 K
  vapor or sublimation pressure: 0.00937 ± 0.0008 kPa
317.8 K
  vapor or sublimation pressure: 0.0105 ± 0.0007 kPa
318.2 K
  vapor or sublimation pressure: 0.0105 ± 0.0006 kPa
319.9 K
  vapor or sublimation pressure: 0.0124 ± 0.001 kPa
320.2 K
  vapor or sublimation pressure: 0.0115 ± 0.0009 kPa
322.5 K
  vapor or sublimation pressure: 0.0149 ± 0.0009 kPa
323.2 K
  vapor or sublimation pressure: 0.0159 ± 0.001 kPa
323.4 K
  vapor or sublimation pressure: 0.0151 ± 0.0009 kPa
325.3 K
  vapor or sublimation pressure: 0.0176 ± 0.0011 kPa and 0.018 ± 0.0011 kPa
326.4 K
  vapor or sublimation pressure: 0.0193 ± 0.0012 kPa
327.5 K
  vapor or sublimation pressure: 0.0215 ± 0.0013 kPa
328.2 K
  vapor or sublimation pressure: 0.0223 ± 0.0014 kPa
328.5 K
  vapor or sublimation pressure: 0.0226 ± 0.0014 kPa
330.3 K
  vapor or sublimation pressure: 0.0254 ± 0.0016 kPa
331.1 K
  vapor or sublimation pressure: 0.0289 ± 0.0019 kPa
331.4 K
  vapor or sublimation pressure: 0.0292 ± 0.0018 kPa
333.2 K
  vapor or sublimation pressure: 0.0339 ± 0.0021 kPa
333.5 K
  vapor or sublimation pressure: 0.0346 ± 0.0021 kPa and 0.0333 ± 0.002 kPa
335.2 K
  vapor or sublimation pressure: 0.0375 ± 0.0023 kPa
336.3 K
  vapor or sublimation pressure: 0.0414 ± 0.0026 kPa
337 K
  vapor or sublimation pressure: 0.0434 ± 0.0027 kPa
338.1 K
  vapor or sublimation pressure: 0.0475 ± 0.0029 kPa
338.6 K
  vapor or sublimation pressure: 0.0475 ± 0.0029 kPa
340.2 K
  vapor or sublimation pressure: 0.0543 ± 0.0034 kPa
340.8 K
  vapor or sublimation pressure: 0.0586 ± 0.0035 kPa
341.4 K
  vapor or sublimation pressure: 0.0568 ± 0.0035 kPa
343.2 K
  vapor or sublimation pressure: 0.0651 ± 0.0039 kPa
343.4 K
  vapor or sublimation pressure: 0.0693 ± 0.0043 kPa
343.5 K
  vapor or sublimation pressure: 0.0645 ± 0.0039 kPa
345.2 K
  vapor or sublimation pressure: 0.0741 ± 0.0046 kPa
348.3 K
  vapor or sublimation pressure: 0.0962 ± 0.0059 kPa
351.2 K
  vapor or sublimation pressure: 0.1137 ± 0.007 kPa
353.1 K
  vapor or sublimation pressure: 0.1332 ± 0.0082 kPa
358.2 K
  vapor or sublimation pressure: 0.1811 ± 0.011 kPa

## CCCOC(=O)C(=O)OCCC [di-n-propyl oxalate]
293.6 K
  vapor or sublimation pressure: 0.00943 ± 0.00059 kPa
298.5 K
  vapor or sublimation pressure: 0.0139 ± 0.0009 kPa
301.4 K
  vapor or sublimation pressure: 0.0175 ± 0.0011 kPa
306.4 K
  vapor or sublimation pressure: 0.0255 ± 0.0016 kPa
308.4 K
  vapor or sublimation pressure: 0.0304 ± 0.0019 kPa
311.4 K
  vapor or sublimation pressure: 0.0362 ± 0.0022 kPa
313.4 K
  vapor or sublimation pressure: 0.0413 ± 0.0026 kPa
316.3 K
  vapor or sublimation pressure: 0.052 ± 0.0032 kPa
318.6 K
  vapor or sublimation pressure: 0.0626 ± 0.0039 kPa
321.4 K
  vapor or sublimation pressure: 0.0741 ± 0.0046 kPa
323.3 K
  vapor or sublimation pressure: 0.0903 ± 0.0056 kPa
326.3 K
  vapor or sublimation pressure: 0.1085 ± 0.0067 kPa
328.3 K
  vapor or sublimation pressure: 0.1248 ± 0.0077 kPa
330.4 K
  vapor or sublimation pressure: 0.1423 ± 0.0088 kPa
333.5 K
  vapor or sublimation pressure: 0.1801 ± 0.011 kPa

## CCCCOC(=O)CC(=O)OCCCC [dibutyl 1,3-propanedioate]
303.2 K
  vapor or sublimation pressure: 0.00138 ± 9e-05 kPa
308.3 K
  vapor or sublimation pressure: 0.00223 ± 0.00014 kPa
313.3 K
  vapor or sublimation pressure: 0.00366 ± 0.00023 kPa
318.3 K
  vapor or sublimation pressure: 0.00557 ± 0.00035 kPa
323.2 K
  vapor or sublimation pressure: 0.00878 ± 0.00054 kPa
325.1 K
  vapor or sublimation pressure: 0.0101 ± 0.0006 kPa
328.2 K
  vapor or sublimation pressure: 0.0131 ± 0.0008 kPa
330.2 K
  vapor or sublimation pressure: 0.0152 ± 0.0009 kPa
333.2 K
  vapor or sublimation pressure: 0.0193 ± 0.0012 kPa
335.2 K
  vapor or sublimation pressure: 0.0217 ± 0.0013 kPa
338.2 K
  vapor or sublimation pressure: 0.0267 ± 0.0017 kPa
340.2 K
  vapor or sublimation pressure: 0.0325 ± 0.002 kPa
343.2 K
  vapor or sublimation pressure: 0.0407 ± 0.0025 kPa
345.2 K
  vapor or sublimation pressure: 0.0454 ± 0.0028 kPa
349.1 K
  vapor or sublimation pressure: 0.0586 ± 0.0036 kPa
353.1 K
  vapor or sublimation pressure: 0.0788 ± 0.0048 kPa
357.2 K
  vapor or sublimation pressure: 0.1022 ± 0.0063 kPa
361.2 K
  vapor or sublimation pressure: 0.1343 ± 0.0082 kPa
365.2 K
  vapor or sublimation pressure: 0.1672 ± 0.01 kPa
369.2 K
  vapor or sublimation pressure: 0.2174 ± 0.013 kPa

## CCCCOC(=O)CCCCC(=O)OCCCC [dibutyl hexanedioate]
313.2 K
  vapor or sublimation pressure: 0.00018 ± 1e-05 kPa
318.2 K
  vapor or sublimation pressure: 0.0003 ± 2e-05 kPa
323.2 K
  vapor or sublimation pressure: 0.00048 ± 3e-05 kPa
328.2 K
  vapor or sublimation pressure: 0.00079 ± 5e-05 kPa
333.3 K
  vapor or sublimation pressure: 0.00127 ± 8e-05 kPa
338.4 K
  vapor or sublimation pressure: 0.00202 ± 0.00013 kPa
343.1 K
  vapor or sublimation pressure: 0.00304 ± 0.00019 kPa
348.2 K
  vapor or sublimation pressure: 0.00467 ± 0.00029 kPa
353.2 K
  vapor or sublimation pressure: 0.00705 ± 0.00044 kPa
358.2 K
  vapor or sublimation pressure: 0.0102 ± 0.0006 kPa
363.2 K
  vapor or sublimation pressure: 0.0143 ± 0.0009 kPa
368.2 K
  vapor or sublimation pressure: 0.0201 ± 0.0012 kPa
373.2 K
  vapor or sublimation pressure: 0.0285 ± 0.0017 kPa
